± gives the expanded uncertainty stated by the source.
Assay: mn = molality of the nth substance listed, in mol/kg
Conditions: 298.15 K, 100 kPa, Liquid, Vibrating tube method

| mass density (m1 = 1.5) [kg/m3] | mass density (m1 = 2) [kg/m3] | mass density (m1 = 2.499) [kg/m3] | mass density (m1 = 0.5) [kg/m3] | also measured | Compound |
| --- | --- | --- | --- | --- | --- |
| – | – | – | – | mass density (m1 = 0.8817): 1023.6 ± 0.21 kg/m3 | C[N+](C)(C)C[C@H](O)CC(=O)[O-] [(R)-3-hydroxy-4-(trimethylammonio)butanoate] + O |
| 1054.74 ± 0.12 | 1072.27 ± 0.12 | 1089.16 ± 0.12 | – | mass density (m1 = 1): 1036.18 ± 0.11 kg/m3; mass density (m1 = 3): 1105.67 ± 0.13 kg/m3 | [Cl-].[Na+] [sodium chloride] + O |
| – | 1081.48 ± 0.12 | 1100.25 ± 0.12 | 1019.83 ± 0.11 | mass density (m1 = 0.9998): 1041.41 ± 0.11 kg/m3; mass density (m1 = 1.499): 1062.03 ± 0.12 kg/m3; mass density (m1 = 2.98): 1117.69 ± 0.13 kg/m3 | [Cl-].[K+] [potassium chloride] + O |
| 1107.94 ± 0.13 | 1142.48 ± 0.14 | – | 1035.42 ± 0.11 | mass density (m1 = 0.9999): 1072.67 ± 0.12 kg/m3; mass density (m1 = 2.5): 1175.65 ± 0.14 kg/m3; mass density (m1 = 2.999): 1207.24 ± 0.15 kg/m3 | [Br-].[Na+] [sodium bromide] + O |
